Results taken from patent US20100267561A1, “HERBICIDAL PYRIDAZINONE DERIVATIVES” (priority 2007, published 2010).

What was measured:
Type in all cases: in vivo
[1] = test system: johnsongrass (Sorghum halepense); assay: Test B pre-/postemergence plant response; settings: for Johnsongrass plant response rating: 8 g ai/ha
Procedure, shortened: (§1)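 Visual scoring from 0 (no effect) to 100 (complete control) against untreated controls was done 13 to 15 days after greenhouse treatment. Chemicals were formulated in a surfactant-containing non-phytotoxic solvent and applied to soil preemergence or to 1- to 4-leaf (2-18 cm) plants postemergence.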

[2] = test system: surinam grass (Brachiaria decumbens); assay: Test B pre-/postemergence plant response; settings: for Surinam Grass plant response rating: 8 g ai/ha
Procedure, shortened: as §1

[3] = test system: downy bromegrass (Bromus tectorum); assay: Test C pre-/postemergence plant response
Source text: (§2) Seeds of plant species selected from annual bluegrass (Poa annua), blackgrass (Alopecurus myosuroides), canola (Brassica rapa), downy bromegrass (Bromus tectorum), green foxtail (Setaria viridis), Italian ryegrass (Lolium multiflorum), canarygrass (Phalaris minor), pigweed (Amaranthus retroflexus), spring barley (Hordeum vulgare), spring wheat (Triticum aestivum), wild mustard (Sinapis arvensis), wild oat (Avena fatua), windgrass (Apera spica-venti), winter barley (Hordeum vulgare), and winter wheat (Triticum aestivum) were planted and treated preemergence with test chemicals formulated in a non-phytotoxic solvent mixture which included a surfactant. At the same time, plants selected from these crop and weed species were treated with postemergence applications of some of the test chemicals formulated in the same manner. Plants ranged in height from 2 to 18 cm (1- to 4-leaf stage) for postemergence treatments.
(§3) Treated plants and controls were maintained in a controlled growth environment for 15 to 25 days after which time all species were compared to controls and visually evaluated. Plant response ratings, summarized in Table C, are based on a scale of 0 to 100 where 0 is no effect and 100 is complete control. A dash (-) response means no test result.

[4] = test system: spring barley (Hordeum vulgare); assay: Test C pre-/postemergence plant response
Source text: as §2, §3

[5] = test system: windgrass (Apera spica-venti); assay: Test C pre-/postemergence plant response
Source text: as §2, §3

[6] = test system: green foxtail (Setaria viridis); assay: Test C pre-/postemergence plant response
Source text: as §2, §3

[7] = test system: blackgrass (Alopecurus myosuroides); assay: Test C pre-/postemergence plant response
Source text: as §2, §3

[8] = test system: annual bluegrass (Poa annua); assay: Test C pre-/postemergence plant response
Source text: as §2, §3

[9] = test system: pigweed (Amaranthus retroflexus); assay: Test C pre-/postemergence plant response
Source text: as §2, §3

[10] = test system: wild mustard (Sinapis arvensis); assay: Test C pre-/postemergence plant response
Source text: as §2, §3

[11] = test system: canarygrass (Phalaris minor); assay: Test C pre-/postemergence plant response; settings: Preemergence
Source text: as §2, §3

[12] = test system: winter wheat (Triticum aestivum); assay: Test C pre-/postemergence plant response
Source text: as §2, §3

wild oat (Avena fatua) = assay: Test C pre-/postemergence plant response
Source text: as §2, §3

[13] = Postemergence, 16 g ai/ha, scale 0 to 100
[14] = Postemergence, 31 g ai/ha, scale 0 to 100, 0 no effect, 100 complete control
[15] = Postemergence, 62 g ai/ha, scale 0 to 100
[16] = Preemergence, 16 g ai/ha, scale 0 to 100 (0 no effect, 100 complete control)
[17] = Preemergence, 31 g ai/ha, 0 to 100 scale, 0 no effect, 100 complete control
[18] = Preemergence, 62 g ai/ha, scale 0 to 100
[19] = Postemergence, 8 g ai/ha, scale 0 to 100, 0 no effect, 100 complete control
[20] = Postemergence, 16 g ai/ha, scale 0 to 100, 0 no effect, 100 complete control
[21] = Postemergence, 62 g ai/ha, scale 0 to 100, 0 no effect, 100 complete control
[22] = Preemergence, 8 g ai/ha, scale 0 to 100 (0 no effect, 100 complete control)
[23] = Preemergence, 31 g ai/ha, scale 0 to 100 (0 no effect, 100 complete control)
[24] = Preemergence, 62 g ai/ha, scale 0 to 100, 0 no effect, 100 complete control

CCc1cc(-c2ccc(C(F)(F)F)cc2)nn1-c1c(OS(C)(=O)=O)cnn(C)c1=O [Compound 19]
Johnsongrass plant response rating ([1]; postemergence, 0-100 scale): 40 | Plant response rating, Johnsongrass [1, 13]: 80 | Plant response rating, Johnsongrass [1, 14]: 100 | Plant response rating, Johnsongrass [1, 15]: 100 | Plant response rating, Johnsongrass [1, 16]: 100 | Plant response rating, Johnsongrass [1, 17]: 100 | Plant response rating, Johnsongrass [1, 18]: 100 | Johnsongrass plant response rating ([1]; Preemergence, scale 0 to 100): 80 | Surinam Grass plant response rating ([2]; postemergence, 0-100 scale): 90 | Plant response rating, Surinam Grass [2, 13]: 100 | Plant response rating, Surinam Grass [2, 14]: 100 | Plant response rating, Surinam Grass [2, 15]: 100 | Plant response rating, Surinam Grass [2, 16]: 80 | Plant response rating, Surinam Grass [2, 17]: 98 | Plant response rating, Surinam Grass [2, 18]: 100 | Surinam Grass plant response rating ([2]; Preemergence, scale 0 to 100): 80 | Plant response rating, Bromegrass, Downy [3, 19]: 40 | Plant response rating, Bromegrass, Downy [3, 20]: 65 | Plant response rating, Bromegrass, Downy [3, 14]: 98 | Plant response rating, Bromegrass, Downy [3, 21]: 100 | Plant response rating, Bromegrass, Downy [3, 22]: 30 | Plant response rating, Bromegrass, Downy [3, 16]: 65 | Plant response rating, Bromegrass, Downy [3, 23]: 75 | Plant response rating, Bromegrass, Downy [3, 24]: 95 | Plant response rating, Barley, Spring [4, 19]: 20 | Plant response rating, Barley, Spring [4, 20]: 90 | Plant response rating, Barley, Spring [4, 14]: 100 | Plant response rating, Barley, Spring [4, 21]: 100 | Plant response rating, Barley, Spring [4, 22]: 50 | Plant response rating, Barley, Spring [4, 16]: 65 | Plant response rating, Barley, Spring [4, 23]: 65 | Plant response rating, Barley, Spring [4, 24]: 80 | Plant response rating, Windgrass [5, 19]: 80 | Plant response rating, Windgrass [5, 20]: 100 | Plant response rating, Windgrass [5, 14]: 100 | Plant response rating, Windgrass [5, 21]: 100 | Plant response rating, Windgrass [5, 22]: 100 | Plant response rating, Windgrass [5, 16]: 100 | Plant response rating, Windgrass [5, 23]: 100 | Plant response rating, Windgrass [5, 24]: 100 | Plant response rating, Foxtail, Green [6, 19]: 95 | Plant response rating, Foxtail, Green [6, 20]: 100 | Plant response rating, Foxtail, Green [6, 14]: 100 | Plant response rating, Foxtail, Green [6, 21]: 100 | Plant response rating, Foxtail, Green [6, 22]: 20 | Plant response rating, Foxtail, Green [6, 16]: 100 | Plant response rating, Foxtail, Green [6, 23]: 100 | Plant response rating, Foxtail, Green [6, 24]: 100 | Plant response rating, Blackgrass [7, 19]: 75 | Plant response rating, Blackgrass [7, 20]: 100 | Plant response rating, Blackgrass [7, 14]: 100 | Plant response rating, Blackgrass [7, 21]: 100 | Plant response rating, Blackgrass [7, 22]: 80 | Plant response rating, Blackgrass [7, 16]: 100 | Plant response rating, Blackgrass [7, 23]: 100 | Plant response rating, Blackgrass [7, 24]: 100 | Plant response rating, Bluegrass [8, 19]: 0 | Plant response rating, Bluegrass [8, 20]: 0 | Plant response rating, Bluegrass [8, 14]: 25 | Plant response rating, Bluegrass [8, 21]: 35 | Plant response rating, Bluegrass [8, 16]: 0 | Plant response rating, Pigweed [9, 19]: 0 | Plant response rating, Pigweed [9, 20]: 0 | Plant response rating, Pigweed [9, 14]: 0 | Plant response rating, Pigweed [9, 21]: 0 | Plant response rating, Pigweed [9, 22]: 0 | Plant response rating, Pigweed [9, 16]: 30 | Plant response rating, Pigweed [9, 23]: 50 | Plant response rating, Pigweed [9, 24]: 75 | Plant response rating, Mustard, Wild [10, 19]: 0 | Plant response rating, Mustard, Wild [10, 20]: 20 | Plant response rating, Mustard, Wild [10, 14]: 20 | Plant response rating, Mustard, Wild [10, 21]: 20 | Plant response rating, Mustard, Wild [10, 22]: 0 | Plant response rating, Mustard, Wild [10, 16]: 0 | Plant response rating, Mustard, Wild [10, 23]: 0 | Plant response rating, Mustard, Wild [10, 24]: 0 | Plant response rating, Canarygrass ([11]; 8 g ai/ha, scale 0 to 100 (0 no effect, 100 complete control)): 65 | Plant response rating, Canarygrass ([11]; 16 g ai/ha, scale 0 to 100 (0 no effect, 100 complete control)): 90 | Plant response rating, Canarygrass ([11]; 31 g ai/ha, scale 0 to 100 (0 no effect, 100 complete control)): 98 | Plant response rating, Canarygrass ([11]; 62 g ai/ha, scale 0 to 100, 0 no effect, 100 complete control): 100 | Plant response rating, Wheat, Winter [12, 19]: 20 | Plant response rating, Wheat, Winter [12, 20]: 80 | Plant response rating, Wheat, Winter [12, 14]: 90 | Plant response rating, Wheat, Winter [12, 21]: 100 | Plant response rating, Wheat, Winter [12, 22]: 10 | Plant response rating, Wheat, Winter [12, 16]: 50 | Plant response rating, Wheat, Winter [12, 23]: 60 | Plant response rating, Wheat, Winter [12, 24]: 90 | Plant response rating, Oat, Wild (wild oat (Avena fatua); [19]): 100 | Plant response rating, Oat, Wild (wild oat (Avena fatua); [20]): 100 | Plant response rating, Oat, Wild (wild oat (Avena fatua); [14]): 100 | Plant response rating, Oat, Wild (wild oat (Avena fatua); [21]): 100 | Plant response rating, Oat, Wild (wild oat (Avena fatua); [22]): 65 | Plant response rating, Oat, Wild (wild oat (Avena fatua); [16]): 65 | Plant response rating, Oat, Wild (wild oat (Avena fatua); [23]): 80 | Plant response rating, Oat, Wild (wild oat (Avena fatua); [24]): 95
